US11242337B2, “Compounds useful for treating gastrointestinal tract disorders” (Ardelyx, Inc., priority 2017, dated 2022)

Experiments:
NHE3 = molecular target: T1, NHE3 (Homo sapiens, UniProt P48764); assay: Cell-based assay of NHE-3 activity (persistent inhibition), human; conditions: human Persistence, 60 min incubation then washout
T1 construct: expressed in transfected cells
T1 sequence (P48764 26-834): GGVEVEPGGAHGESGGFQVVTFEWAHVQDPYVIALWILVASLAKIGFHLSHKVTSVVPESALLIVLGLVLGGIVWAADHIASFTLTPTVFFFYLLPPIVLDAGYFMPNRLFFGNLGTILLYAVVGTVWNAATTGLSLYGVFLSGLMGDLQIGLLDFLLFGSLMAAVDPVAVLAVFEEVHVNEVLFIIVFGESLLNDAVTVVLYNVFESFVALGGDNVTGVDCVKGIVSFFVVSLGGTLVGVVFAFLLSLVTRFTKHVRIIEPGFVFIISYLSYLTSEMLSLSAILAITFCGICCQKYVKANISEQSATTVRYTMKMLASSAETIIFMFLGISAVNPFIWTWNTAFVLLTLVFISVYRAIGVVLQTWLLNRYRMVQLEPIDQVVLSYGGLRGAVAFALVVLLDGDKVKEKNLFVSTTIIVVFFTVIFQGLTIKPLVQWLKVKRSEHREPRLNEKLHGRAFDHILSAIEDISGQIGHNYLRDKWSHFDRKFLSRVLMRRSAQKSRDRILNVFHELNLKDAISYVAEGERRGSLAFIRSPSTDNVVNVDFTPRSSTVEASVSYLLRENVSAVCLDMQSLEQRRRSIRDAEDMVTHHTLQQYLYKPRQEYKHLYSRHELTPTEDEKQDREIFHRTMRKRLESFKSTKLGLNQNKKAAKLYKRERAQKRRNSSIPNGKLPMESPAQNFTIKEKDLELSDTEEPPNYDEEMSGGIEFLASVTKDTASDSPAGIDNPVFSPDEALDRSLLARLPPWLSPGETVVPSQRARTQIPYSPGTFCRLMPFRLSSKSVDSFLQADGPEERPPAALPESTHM
T1 sequence (Q99653 2-195 partner limits assumed): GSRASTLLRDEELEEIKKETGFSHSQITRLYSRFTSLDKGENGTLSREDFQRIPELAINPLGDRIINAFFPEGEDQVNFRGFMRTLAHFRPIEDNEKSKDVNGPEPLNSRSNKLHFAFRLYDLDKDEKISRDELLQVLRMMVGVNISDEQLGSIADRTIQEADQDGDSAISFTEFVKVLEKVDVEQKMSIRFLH
Outline: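 Persistent inhibition: compound (0-30 μM, 60 min, RT, NaCl-HEPES pH 7.4) removed before assay. Human NHE3/NHERF2 PS120 cells were then BCECF-loaded during NH4Cl pulse (30 min, 37 °C), acidified in Na+-free buffer, and Na+ added 10 min after washout; antiport measured as initial fluorescence-ratio change per minute.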

[1] = system: human ileum monolayer culture; assay: Sustained inhibition of apical acid secretion in human organoid monolayer cell cultures (ileum); assay type: cell-based; conditions: Homo sapiens, 48 h; 1 μM apical, dosed day 6, apical media pH day 8, vs DMSO
Method: Basal media (BM) consisted of advanced DMEM/F12 containing 10 mM HEPES Invitrogen, 15630-080), 1:100 Glutamax (Invitrogen, 35050-061), and 1:100 penicillin/streptomycin (Invitrogen, 15140-122). Supplemented basal media (SBM) contained 1:100 N2 (Invitrogen, 17502-048), 1:50 B27 (Invitrogen, 12587-010), 1 mM N-acetylcysteine (Sigma, A9165), and 10 nM [Leu15]-gastrin I (Sigma, G9145). Growth factors used included 50 ng per mL mouse EGF (Peprotech, 315-09), 100 ng per mL mouse noggin (Peprotech, 250-38), 500 ng per mL human R-spondin 1 (R&D, 4645-RS), 100 ng per mL mouse Wnt-3a (R&D, 1324-WN), 20 μM. Y-27632 (Tocris, 1254), 10 mM nicotinamide (Sigma, N0636), 500 nM A83-01 (Tocris, 2939), 10 μM SB202190 (Tocris, 1264). Transwells were 0.4 μm pore polyester membrane 24-well Transwell inserts (Corning). Cultures were incubated at 37° C. in 5% CO2.
Human ileum organoids were cultured in WENRNAS (Wnt, EGF, noggin, R-spondin1, Nicotinamide, A83-01, SB202190) and typically grown for 7-12 days before being used to plate monolayer cultures. On day 0, organoid cultures embedded in Matrigel were treated with TrypLE Express to break organoids into small pieces and/or single cells. The cells were resuspended to 0.5×10^6 cells/mL in SBM containing WENRAY (Wnt, EGF, noggin, R-spondin1, A83-01, Y-27632). Following this step, 200 μL of cell suspension was plated into the apical side of a 24-well Transwell (100,000 cells/well) and 600 μL of SBM with WENRAY was added to the basolateral side. Ileum cells were differentiated with ENRA (EGF, noggin, R-spondin 1, A83-01) on day 3. The color of apical compartment turns from pink or orange to yellow due to the increase in NHE3 expression after differentiation.
Each human ileum monolayer culture well was washed twice with fresh SBM on the apical side on day 6 before compound dosing. All compound stocks were 10 mM dissolved in DMSO. Each compound stock was individually mixed with fresh SBM to reach final compound concentration 1 μM and dosed only on the apical side of the monolayer (total volume 200 μl). DMSO at the equivalent concentration was used as the vehicle control. Duplicate wells were dosed for each compound. On day 8, apical media pH was measured by pH electrode, to determine the ability of example compounds to produce sustained inhibition of NHE3 activity in a human monolayer culture system by preventing proton secretion into the apical compartment.

Row | Compound | % inhibition (NHE3) | pIC50 (NHE3) | inhibition at 1 µM [1] [%]
1 | Cc1cc(S(=O)(=O)NCCOCCOCCNC(=O)NCCCCNC(=O)NCCOCCOCCNS(=O)(=O)c2ccc(O[C@H]3c4cc(Cl)cc(C)c4C[C@@H]3N(C)C)c(C)c2)ccc1O[C@H]1c2cc(Cl)cc(C)c2C[C@@H]1N(C)C [Example 17, 3-[2-(2-[2-[(4-[[(1S,2S)-6-Chloro-2-(dimethylamino)-4-methyl-2,3-dihydro-1H-inden-1-yl]oxy]-3-methylbenzene)sulfonamido]ethoxy]ethoxy)ethyl]-1-[4-([[2-(2-[2-[(4-[[(1S,2S)-6-chloro-2-(dimethylamino)-4-methyl-2,3-dihydro-1H-inden-1-yl]oxy]-3-methylbenzene)sulfonamido]ethoxy]ethoxy)ethyl]carbamoyl]amino)butyl]urea] | C (>70%) | C (NHE3 pIC50 > 7) | 50 to 70
2 | CN(C)[C@H]1Cc2c(Cl)cc(Cl)cc2[C@@H]1Oc1ccc(S(=O)(=O)NCCOCCOCCNC(=O)NCCCCNC(=O)NCCOCCOCCNS(=O)(=O)c2ccc(O[C@H]3c4cc(Cl)cc(Cl)c4C[C@@H]3N(C)C)c(F)c2)cc1F [Example 23, 3-[2-(2-[2-[(4-[[(1S,2S)-4,6-Dichloro-2-(dimethylamino)-2,3-dihydro-1H-inden-1-yl]oxy]-3-fluorobenzene)sulfonamido]ethoxy]ethoxy)ethyl]-1-[4-([[2-(2-[2-[(4-[[(1S,2S)-4,6-dichloro-2-(dimethylamino)-2,3-dihydro-1H-inden-1-yl]oxy]-3-fluorobenzene)sulfonamido]ethoxy]ethoxy)ethyl]carbamoyl]amino)butyl]urea; bis(trifluoroacetic acid)] | C (>70%) | C (NHE3 pIC50 > 7) | 50 to 70
3 | Cc1cc(Cl)cc2c1C[C@H](N(C)C)[C@H]2Oc1ccc(S(=O)(=O)NCCOCCOCCNC(=O)NCCCCNC(=O)NCCOCCOCCNS(=O)(=O)c2ccc(O[C@H]3c4cc(Cl)cc(C)c4C[C@@H]3N(C)C)c(F)c2)cc1F [Example 24, 3-[2-(2-[2-[(4-[[(1S,2S)-6-Chloro-2-(dimethylamino)-4-methyl-2,3-dihydro-1H-inden-1-yl]oxy]-3-fluorobenzene)sulfonamido]ethoxy]ethoxy)ethyl]-1-[4-([[2-(2-[2-[(4-[[(1S,2S)-6-chloro-2-(dimethylamino)-4-methyl-2,3-dihydro-1H-inden-1-yl]oxy]-3-fluorobenzene)sulfonamido]ethoxy]ethoxy)ethyl]carbamoyl]amino)butyl]urea] | C (>70%) |  | < 50
4 | Cc1cc(S(=O)(=O)NCCOCCOCCNC(=O)NCCCCNC(=O)NCCOCCOCCNS(=O)(=O)c2ccc(O[C@H]3c4cc(Cl)cc(Cl)c4C[C@@H]3N3CCC[C@@H](N(C)C)C3)c(C)c2)ccc1O[C@H]1c2cc(Cl)cc(Cl)c2C[C@@H]1N1CCC[C@@H](N(C)C)C1 [Example 26, 3-[2-(2-[2-[(4-[[(1S,2S)-4,6-Dichloro-2-[(3R)-3-(dimethylamino)piperidin-1-yl]-2,3-dihydro-1H-inden-1-yl]oxy]-3-methylbenzene)sulfonamido]ethoxy]ethoxy)ethyl]-1-[4-([[2-(2-[2-[4-[[(1S,2S)-4,6-dichloro-2-[(3R)-3-(dimethylamino)piperidin-1-yl]-2,3-dihydro-1H-inden-1-yl]oxy]-3-methylbenzenesulfonamido]ethoxy]ethoxy)ethyl]carbamoyl]amino)butyl]urea; bis(trifluoroacetic acid)] | C (>70%) |  | 50 to 70
5 | Cc1cc(Cl)cc2c1C[C@H](N1CCC[C@@H](N(C)C)C1)[C@H]2Oc1ccc(S(=O)(=O)NCCOCCOCCNC(=O)NCCCCNC(=O)NCCOCCOCCNS(=O)(=O)c2ccc(O[C@H]3c4cc(Cl)cc(C)c4C[C@@H]3N3CCC[C@@H](N(C)C)C3)cc2)cc1 [Example 28, 3-[2-(2-[2-[(4-[[(1S,2S)-6-Chloro-2-[(3R)-3-(dimethylamino)piperidin-1-yl]-4-methyl-2,3-dihydro-1H-inden-1-yl]oxy]benzene)sulfonamido]ethoxy]ethoxy)ethyl]-1-[4-([[2-(2-[2-[(4-[[(1S,2S)-6-chloro-2-[(3R)-3-(dimethylamino)piperidin-1-yl]-4-methyl-2,3-dihydro-1H-inden-1-yl]oxy]benzene)sulfonamido]ethoxy]ethoxy)ethyl]carbamoyl]amino)butyl]urea; bis(trifluoroacetic acid)] | C (>70%) | C (NHE3 pIC50 > 7) | 50 to 70
6 | Cc1cc(S(=O)(=O)NCCOCCOCCNC(=O)NCCCCNC(=O)NCCOCCOCCNS(=O)(=O)c2ccc(O[C@H]3c4cc(Cl)cc(C)c4C[C@@H]3N3CCC[C@@H](N(C)C)C3)c(C)c2)ccc1O[C@H]1c2cc(Cl)cc(C)c2C[C@@H]1N1CCC[C@@H](N(C)C)C1 [Example 29] | C (>70%) | C (NHE3 pIC50 > 7) | > 70
7 | O=C(NCCCCNC(=O)NCCOCCOCCNS(=O)(=O)c1ccc(O[C@H]2c3cc(Cl)cc(Cl)c3C[C@@H]2N2CCNCC2)cc1)NCCOCCOCCNS(=O)(=O)c1ccc(O[C@H]2c3cc(Cl)cc(Cl)c3C[C@@H]2N2CCNCC2)cc1 [Example 31, 3-[2-(2-[2-[(4-[[(1S,2S)-4,6-Dichloro-2-(piperazin-1-yl)-2,3-dihydro-1H-inden-1-yl]oxy]benzene)sulfonamido]ethoxy]ethoxy)ethyl]-1-[4-([[2-(2-[2-[(4-[[(1S,2S)-4,6-dichloro-2-(piperazin-1-yl)-2,3-dihydro-1H-inden-1-yl]oxy]benzene)sulfonamido]ethoxy]ethoxy)ethyl]carbamoyl]amino)butyl]urea; bis(trifluoroacetic acid)] | C (>70%) |  | > 70
8 | Cc1cc(S(=O)(=O)NCCOCCOCCNC(=O)NCCCCNC(=O)NCCOCCOCCNS(=O)(=O)c2ccc(O[C@H]3c4cc(Cl)cc(Cl)c4C[C@@H]3N3CCNCC3)c(C)c2)ccc1O[C@H]1c2cc(Cl)cc(Cl)c2C[C@@H]1N1CCNCC1 [Example 32, 3-[2-(2-[2-[(4-[[(1S,2S)-4,6-Dichloro-2-(piperazin-1-yl)-2,3-dihydro-1H-inden-1-yl]oxy]-3-methylbenzene)sulfonamido]ethoxy]ethoxy)ethyl]-1-[4-([[2-(2-[2-[(4-[[(1S,2S)-4,6-dichloro-2-(piperazin-1-yl)-2,3-dihydro-1H-inden-1-yl]oxy]-3-methylbenzene)sulfonamido]ethoxy]ethoxy)ethyl]carbamoyl]amino)butyl]urea; bis(trifluoroacetic acid)] | C (>70%) | C (NHE3 pIC50 > 7) | > 70
